Measurements published in patent publication US6586413B2, “Methods and compositions for reducing ischemic injury of the heart by administering adenosine receptor agonists and antagonists” (The United States of America as represented by the …, priority 1999, dated 2003).

How the values were obtained:
[1] = test system: isolated cardiac myocytes; test: Apoptotic cell death by DNA laddering on 1.5% agarose gel; format: cell-based; details: for apoptotic cell death caused by prolonged exposure to the agent: no ischemia, agents that increase intracellular calcium
Protocol: Such smearing is indicative of a culmination of the apoptotic cell death pathway. Isolated cardiac myocytes were exposed to 90-min ischemia and 30-min reoxygenation (lanes 4 and 5). […] Lanes 1 and 2 represent myocytes not exposed to ischemia or any agent. Data were representative of three experiments.
Isolated cardiac myocytes were exposed to prolonged moderate simulated ischemia (17 hours with 2-3% O2). Lane 3 represents myocytes not exposed to ischemia or any agent. Lane 5 represents myocytes exposed to 17 hours of ischemia. […] Data were representative of three experiments.
Lane 3 represents myocytes not exposed to any agent. Lane 5 represents cardiac myocytes exposed (for three hours) to an agent (a P2X receptor agonist, 2-methylthioATP) known to increase intracellular calcium concentration. Prolonged exposure to 2-methylthioATP or UTP caused increased apoptosis (Lane 7). […] Data were representative of two experiments.
The effects of agents which target the adenosine receptor on apoptosis were initially examined in isolated cardiac myocytes exposed to ischemia (for 90 minutes and 30 minutes of reoxygenation) or agents which increase intracellular calcium levels. Increasing the level of intracellular calcium concentration induces non-ischemia-related apoptosis in vitro. Apoptotic cell death of cardiac myocytes was assessed by determining the extent of smearing or “DNA laddering” on 1.5% agarose gels.

[2] = test system: cardiac ventricular myocytes cultured from chick embryos; test: Hypoxia-induced myocyte injury, agent present during prolonged (90 min) hypoxia with glucose deprivation; format: cell-based; details: for cardioprotective effect when present during prolonged hypoxia (CK released, % myocytes killed): agonist present during prolonged hypoxia/simulated ischemia; for effect of antagonist on A1 agonist (CCPA, CHA, ADAC)-induced cardioprotection: antagonist with A1 agonist during prolonged hypoxia; for effect of antagonist on A3 agonist (IB-MECA, Cl-IB-MECA)-induced cardioprotection: antagonist with A3 agonist during prolonged hypoxia
Protocol: Ventricular cells were cultured from chick embryos 14 days in ovo as previously described (16, 23). Cells were cultivated in a humidified 5% CO2-95% air mixture at 37° C. […] The medium was changed to a HEPES-buffered medium containing (mM) 139 NaCl, 4.7 KCl, 0.5 MgCl2, 0.9 CaCl2, 5 HEPES (N-2-hydroxyethylpiperazine-N′-2-ethanesulfonic acid) and 2% fetal bovine serum, pH 7.4, 37° C. before exposing the myocytes to the various conditions at 37° C. Control myocytes were maintained in the HEPES-buffered media under room air. Ninety-minute exposure of the myocytes to hypoxia with glucose deprivation was used to induce cell injury. Hypoxia was produced by placing the cells in a hypoxic incubator (NuAire) where O2 was replaced by N2 as previously described (16,23). Effects of adenosine receptor agonists and antagonists on the extent of myocyte injury were determined by exposure of the prepared cells to these agents during the prolonged hypoxia.
(§1) Determination of myocyte injury was made at the end of the ninety-minute hypoxia, at which time myocytes were taken out of the hypoxic incubator and re-exposed to room air (normal % O2). Aliquots of the media were then obtained for creatine kinase (CK) activity measurement, which is followed by quantitation of the number of viable cells. Measurement of basal level of cell injury was made after parallel incubation of control cells under normal % O2. The extent of hypoxia-induced injury to the ventricular cell was quantitatively determined by the percentages of cells killed and by the amount of CK released into the media according to a previously described method (16, 23). […] In brief, the media were replaced with a trypsin-EDTA buffer to detach the cells, which was then followed by sedimentation of the viable myocytes. Parallel changes in % cells killed and CK released (16, 23) further validated this assay for % cells killed. The amount of CK was measured as enzyme activity (unit/mg), and increases in CK activity above the control level were determined. The percentage of cells killed was calculated as the number of cells obtained from the control group (representing cells not subjected to any hypoxia or drug treatment) minus the number of cells from the treatment group divided by number of cells in control group multiplied by 100%.

[3] = test system: Rat Brain A1 and A2-Receptors; details: cited from earlier work; for A1/A2 ratio: rat brain, reference 31; for A1/A2 ratio, value in square brackets: second value printed in brackets below, brackets not explained
[4] = test system: ventricular myocytes cultured from chick embryos; test: Pharmacological preconditioning: 5 min exposure to agent, then 90 min simulated ischemia; format: cell-based; details: for effect of PLD inhibition on protective effect of MRS1760: ethanol (0.5%) or propranolol (100 μM) with 10 nM MRS1760
Protocol: FIG. 14 is a graph showing that the partial A1 receptor agonist, 8-butylaminoCPA, mimics the cardioprotective effect of ischemic preconditioning. Ventricular myocytes were cultured from chick embryos 14 days in ovo. The ability of the partial A1 agonist, 8-butylaminoCPA (8-butylamino-N^6-cyclopentyladenosine), to induce preconditioning was determined. In brief, myocytes were exposed to 8-butylaminoCPA at the indicated concentrations for 5 min, incubated for 10 min with agonist-free medium, and then exposed to simulated ischemia for 90 min. The extent of myocyte injury was quantitated at the end of the 90 min period by determinating the percentage of cells killed and the amount of creatine kinase (CK) released (units per milligram of cell protein). Data are means±SE of values from five independent experiments.
as §1
Media were then replaced with fresh media, which was then followed by exposure to 90-minute simulated ischemia and the data graphed.

[5] = 8-SPT alone present during the hypoxia
[6] = in the presence of adenosine and 8-SPT (100 μM) during hypoxia

| SMILES | A1/A2 ratio [3] | also measured |
| --- | --- | --- |
| CSc1nc(N)c2ncn([C@@H]3O[C@H](COP(=O)(O)OP(=O)(O)OP(=O)(O)O)[C@@H](O)[C@H]3O)c2n1 [2-methylthioATP] | – | apoptotic cell death caused by prolonged exposure to the agent [1]: caused an increase in apoptotic cell death |
| Cn1c(=O)c2[nH]c(-c3ccc(S(=O)(=O)O)cc3)nc2n(C)c1=O [8-SPT, 8-sulfophenyl-theophylline] | – | % cells killed [2, 5]: 31.6±1.5%; CK released [2, 5]: 29.6±1.2 unit/mg |
| COc1ccccc1C=Cc1nc2c(c(=O)n(C)c(=O)n2C)n1C [17b] | 18 | – |
| COc1cccc(C=Cc2nc3c(c(=O)n(C)c(=O)n3C)n2C)c1 [19b] | 64 | – |
| Cn1c(=O)c2c(nc(/C=C/c3cccc(C(F)(F)F)c3)n2C)n(C)c1=O [20b] | 25 | – |
| Cn1c(=O)c2c(nc(C=Cc3cccc([N+](=O)[O-])c3)n2C)n(C)c1=O [21b] | 11 | – |
| Cn1c(=O)c2c(nc(C=Cc3cccc(N)c3)n2C)n(C)c1=O [22b] | 30 | – |
| Cn1c(=O)c2c(nc(C=Cc3cccc(F)c3)n2C)n(C)c1=O [27b] | 190 | – |
| COc1ccc(C=Cc2nc3c(c(=O)n(C)c(=O)n3C)n2C)cc1 [29b] | 44 | – |
| COc1ccc(C=Cc2nc3c(c(=O)n(C)c(=O)n3C)n2C)cc1OC [32b] | 70 | – |
| COc1cc(C=Cc2nc3c([nH]2)c(=O)n(C)c(=O)n3C)cc(OC)c1 [33a] | 25 | – |
| COc1cc(C=Cc2nc3c(c(=O)n(C)c(=O)n3C)n2C)cc(OC)c1 [33b] | >200 | – |
| Cn1c(=O)c2c(nc(C=Cc3cc(F)cc(F)c3)n2C)n(C)c1=O [34b] | 230 | – |
| COc1ccc(C=Cc2nc3c(c(=O)n(C)c(=O)n3C)n2C)c(OC)c1OC [43b] | 34 | – |
| COc1cc(C=Cc2nc3c(c(=O)n(C)c(=O)n3C)n2C)cc(OC)c1OC [44b] | 70 | A1/A2 ratio, value in square brackets [3]: [>5600] |
| CCCn1c(=O)c2c(nc(C=Cc3cc(OC)cc(OC)c3)n2C)n(CCC)c1=O [53b] | 110 | – |
| Nc1ncnc2c1ncn2[C@@H]1O[C@H](CO)[C@@H](O)[C@H]1O [Adenosine] | – | CK released ([2]; adenosine 10 μM added during ninety-minute hypoxia, hypoxia alone 28.5±1.5): 14.9±3 unit/mg; % cells killed ([2]; adenosine 10 μM added during ninety-minute hypoxia, hypoxia alone 30±2): 12±2%; % cells killed [2, 6]: 28±3%; CK released [2, 6]: 31±5 unit/mg |
| OC[C@H]1O[C@@H](n2cnc3c(NC4CCCCC4)ncnc32)[C@H](O)[C@@H]1O [CHA, N^6-cyclohexyladenosine] | – | cardioprotective effect when present during prolonged hypoxia (CK released, % myocytes killed) [2]: able to protect the myocytes when present during the prolonged hypoxia |
| Cn1c(=O)c2c(nc(C=Cc3cccc(Cl)c3)n2C)n(C)c1=O [CSC, 8-(3-chlorostyryl)caffeine] | – | apoptosis (DNA laddering) ([1]; prolonged moderate ischemia, 17 hours with 2-3% O2): reduced apoptosis induced by the prolonged moderate ischemia |
| CCCn1c(=O)c2[nH]c(C3CCCC3)nc2n(CCC)c1=O [DPCPX, 8-cyclopentyl-1,3-dipropylxanthine] | – | effect of antagonist on A1 agonist (CCPA, CHA, ADAC)-induced cardioprotection [2]: blocked by the A1 antagonist DPCPX; effect of antagonist on A3 agonist (IB-MECA, Cl-IB-MECA)-induced cardioprotection [2]: had no effect on the ability of IB-MECA or Cl-IB-MECA to mediate their cardioprotective effects |

| SMILES | A1/A2 ratio [3] | also measured |
| --- | --- | --- |
| CNC(=O)[C@H]1O[C@@H](n2cnc3c(NCc4cccc(I)c4)ncnc32)[C@H](O)[C@@H]1O [IB-MECA, N6-(3-iodobenzyl)adenosine-5′-N-methyluronamide] | – | cardioprotective effect when present during prolonged hypoxia (CK released, % myocytes killed) [2]: capable of protecting the cardiac myocytes against hypoxia-induced injury |
| OC[C@@]12C[C@@H]1[C@@H](n1cnc3c(NCc4cccc(I)c4)ncnc31)[C@H](O)[C@@H]2O [MRS1743] | – | preconditioning / cardioprotective effect ([4]; agent alone, 5 min exposure before 90 min ischemia): exerting a potent preconditioning-like effect |
| CCOC(=O)C1=C(C)NC(c2ccccc2)=C(C(=O)OCC)C1/C=C/c1ccccc1 (stereo not drawn) [MRS 1097, 3,5-Diethyl 2-methyl-6-phenyl-4-[2-phenyl-(E)-vinyl]-1,4-(1)-dihydropyridine-3,5-dicarboxylate] | – | effect of antagonist on A1 agonist (CCPA, CHA, ADAC)-induced cardioprotection [2]: neither MRS 1191 nor MRS 1097 was able to block the CCPA-induced cardioprotection; effect of antagonist on A3 agonist (IB-MECA, Cl-IB-MECA)-induced cardioprotection [2]: able to block the cardioprotective effect of Cl-IB-MECA |
| CNC(=O)C1OC(n2cnc3c(NCc4cccc(S(=O)(=O)O)c4)ncnc32)C(O)C1O (stereo not drawn) [MRS 1340] | – | creatine kinase released during prolonged simulated ischemia ([2]; increasing concentrations, presence and absence of DPCPX (FIGS. 3A-3D)): cardioprotective effects |
| CC(C)NCC(O)COc1cccc2ccccc12 (stereo not drawn) [Propranolol] | – | effect of PLD inhibition on protective effect of MRS1760 [4]: also abolished the protective effect of MRS1760 |
| COc1ccc2c(c1)CC[C@@H]1[C@@H]2CC[C@]2(C)[C@@H](NCCCCCCN3C(=O)C=CC3=O)CC[C@@H]12 [U-73122] | – | effect of PLC inhibitor on protective response to 8-butylaminoCPA ([4]; U-73122 (10 μM) with 1 μM 8-butylaminoCPA): able to block the protective response to 8-butylaminoCPA |
| O=c1ccn([C@@H]2O[C@H](COP(=O)(O)OP(=O)(O)OP(=O)(O)O)[C@@H](O)[C@H]2O)c(=O)[nH]1 [UTP] | – | apoptotic cell death caused by prolonged exposure to the agent [1]: caused an increase in apoptotic cell death |
| CC(=O)Nc1cccc(C=Cc2nc3c(c(=O)n(C)c(=O)n3C)n2C)c1 [compound 23] | 240 | – |
| Cn1c(=O)c2c(nc(C=Cc3cccc(NC(=O)CCC(=O)O)c3)n2C)n(C)c1=O [compound 24] | 250 | – |
| Cn1c(=O)c2c(nc(C=Cc3cccc(NC(=O)OC(C)(C)C)c3)n2C)n(C)c1=O [compound 25] | 30 | – |
| Cn1c(=O)c2c(nc(C=Cc3cccc(N(C(=O)OC(C)(C)C)C(=O)OC(C)(C)C)c3)n2C)n(C)c1=O [compound 26] | 15 | – |
| COc1cc(C=Cc2nc3c(c(=O)n(C)c(=O)n3C)n2C)cc(OC)c1O [compound 35] | 19 | – |
| COc1cc(C=Cc2nc3c(c(=O)n(C)c(=O)n3C)n2C)cc(OC)c1OC(C)=O [compound 36] | 93 | – |
| COc1cc(C=Cc2nc3c(c(=O)n(C)c(=O)n3C)n2C)cc(OC)c1OCCCCN [compound 38] | 36 | – |
| COc1cc(C=Cc2nc3c(c(=O)n(C)c(=O)n3C)n2C)cc(OC)c1OCCCCNC(=O)OC(C)(C)C [compound 39] | 42 | – |
| COc1cc(C=Cc2nc3c(c(=O)n(C)c(=O)n3C)n2C)cc(OC)c1OCC=CCN [compound 40] | 28 | – |
| COc1cc(C=Cc2nc3c(c(=O)n(C)c(=O)n3C)n2C)cc(OC)c1OCC=CCNC(C)=O [compound 41] | >50 | – |
| COc1cc(C=Cc2nc3c(c(=O)n(C)c(=O)n3C)n2C)cc(OC)c1OCC=CCNC(=O)OC(C)(C)C [compound 42] | >40 | – |
| C=CCn1c(=O)c2c(nc(C=Cc3cc(OC)c(OC)c(OC)c3)n2C)n(CC=C)c1=O [compound 46] | 13 | A1/A2 ratio, value in square brackets [3]: [>6700] |
| CCO [ethanol] | – | effect of PLD inhibition on protective effect of MRS1760 [4]: abolished the protective effect of MRS1760 |
